# Paper PMC4061482 (Frontiers in Oncology, 2014)
# Experiments:
# 22RV1 cells [1] = assay: Testosterone ELISA after androstenedione stimulation; type: cell-based, human
# Protocol: Cells were seeded into 96-well plates in hormone-deprived media at appropriate seeding densities [10,000–50,000 cells per well for all lines except HCC1500 (100,000 cells per well; 11β-PGF2α ELISA)] to reach approximately 70% confluency at the time of sampling and were left to settle for 24 h at 37°C and 5% CO2. […] removed for analysis of 11β-PGF2α, testosterone, or 17β-estradiol by ELISA as per manufacturer’s instructions (11β-PGF2α and testosterone ELISA, Cayman Chemical Company; 17β-estradiol ELISA, Oxford Biomedical Research), and cells were fixed for sulforhodamine B analysis as described below. Each ELISA plate was read at a wavelength of 405 nm (11β-PGF2α and testosterone) or 650 nM (17β-estradiol) on a SpectraMax M2 microplate reader (Molecular Devices) and quantitated against a standard curve generated in hormone-deprived culture media. Cross-reactivity to PGD2, androstenedione, or estrone was accounted for by adding these to cell-free wells of each ELISA plate.
# Since AKR1C3 has been implicated in the development of CRPC because of its ability to produce testosterone intratumorally from circulating androstenedione, we determined testosterone concentrations in the prostate cancer cell lines and known high and low AKR1C3-expressing cells after stimulation with androstenedione for 24 h.
# NCI-H460 cells = assay: 17β-estradiol ELISA after estrone stimulation; type: cell-based; settings: Homo sapiens, 28 nM estrone, 24 h, read-out: Inhibition of 17β-estradiol formation
# Protocol: Cells were seeded into 96-well plates in hormone-deprived media at appropriate seeding densities [10,000–50,000 cells per well for all lines except HCC1500 (100,000 cells per well; 11β-PGF2α ELISA)] to reach approximately 70% confluency at the time of sampling and were left to settle for 24 h at 37°C and 5% CO2. Inhibitors were added to the plates at single or multiple concentrations for 1 h prior to administration of equimolar (28 nM) concentrations of PGD2 (11β-PGF2α ELISA), androstenedione (testosterone ELISA), or estrone (17β-estradiol ELISA). The plates were returned to the incubator for a further 24 h before cell supernatant was removed for analysis of 11β-PGF2α, testosterone, or 17β-estradiol by ELISA as per manufacturer’s instructions (11β-PGF2α and testosterone ELISA, Cayman Chemical Company; 17β-estradiol ELISA, Oxford Biomedical Research), and cells were fixed for sulforhodamine B analysis as described below. Each ELISA plate was read at a wavelength of 405 nm (11β-PGF2α and testosterone) or 650 nM (17β-estradiol) on a SpectraMax M2 microplate reader (Molecular Devices) and quantitated against a standard curve generated in hormone-deprived culture media. Cross-reactivity to PGD2, androstenedione, or estrone was accounted for by adding these to cell-free wells of each ELISA plate. […]
# 22RV1 cells [2] = assay: PSA concentration after androstenedione stimulation; type: cell-based; settings: Homo sapiens, 10 nM androstenedione, 24 h, read-out: Inhibition of PSA formation attributable to androstenedione stimulation
# Protocol: (§1) Cells were seeded at 20,000 cells per well (LAPC4, LAPC4 AKR1C3) or 50,000 cells per well (22RV1) into 96-well plates in hormone-deprived media and left to settle for 24 h at 37°C and 5% CO2. […] The plates were returned to the incubator for 24 h, before the cell supernatant was removed and frozen for PSA analysis. Determination of total PSA concentration was carried out at LabPLUS, Auckland City Hospital, by immunoassay on a Cobas® e601 analyzer according to manufacturer’s instructions (Roche).
# (§2) Next, PSA expression was determined in the CRPC cell lines that were sensitive to SN33638-mediated inhibition of testosterone (LAPC4 AKR1C3 and 22RV1 with LAPC4 wild-type cells acting as a negative control) as a biomarker of AR activity. […] Androstenedione stimulation promoted PSA production in all three cell lines, with the highest PSA levels observed in LAPC4 AKR1C3 cells.
# LAPC4 AKR1C3 cells [3] = assay: as above; type: cell-based; settings: Homo sapiens, LAPC4, 24 h, read-out: Inhibition of PSA formation attributable to androstenedione stimulation
# Protocol: as §1, §2
# 22RV1 cells [4] = assay: Cell proliferation (sulforhodamine B), 5 days; type: cell-based, human; settings: 10 μM
# Protocol: (§3) Cells were seeded into 96-well plates in hormone-deprived media at appropriate seeding densities (5000–20,000 cells per well) to reach approximately 70% confluency at the time of sampling and left to settle for 48 h at 37°C and 5% CO2. […] The plates were returned to the incubator for 5 days before fixing in 10% trichloroacetic acid (Merck Millipore) at 4°C for 1 h and staining with 0.4% sulforhodamine B (Sigma-Aldrich) in 1% acetic acid for 30 min in the dark at room temperature. Plates were washed in 1% acetic acid, dried, and incubated with unbuffered Tris base (10 mM; Serva) for 30 min on a plate shaker in the dark to solubilize the stain. The plates were read on a BioTek EL808 microplate reader at an absorbance of 490 nm with a reference wavelength of 450 nm.
# (§4) Finally, we investigated whether inhibiting AKR1C3-dependent testosterone or 17β-estradiol production could prevent androstenedione- or estrone-stimulated cell proliferation in CRPC or ER-positive breast cancer cells.
# LAPC4 AKR1C3 cells [5] = assay: Cell proliferation (sulforhodamine B), 5 days; type: cell-based, human
# Protocol: as §3, §4
# LAPC4 wild-type cells = assay: Cell proliferation (sulforhodamine B), 5 days; type: cell-based, human; settings: 10 μM
# Protocol: as §3, §4
# MCF7 cells = assay: Cell proliferation (sulforhodamine B), 5 days; type: cell-based, human
# Protocol: as §3, §4
# (§5) Neither androstenedione nor estrone-stimulated cell proliferation in the HCT116 AKR1C3 and wild-type cell lines (data not shown).
# T47D AKR1C3 cells = assay: Cell proliferation (sulforhodamine B), 5 days; type: cell-based, human; settings: 10 μM, estrone up to 10 nM
# Protocol: as §3, §5
# T47D cells = assay: Cell proliferation (sulforhodamine B), 5 days; type: cell-based, human; settings: 10 μM, estrone up to 10 nM
# Protocol: as §3, §5
smiles,measurement,setting,value
CC1CCCCN1S(=O)(=O)c1ccc(N2CCCC2=O)cc1 (centres unmarked) [SN33638],Effect on testosterone levels,"22RV1 cells [1]; 5 days after stimulation with up to 10 nM androstenedione, data not shown",no inhibitory effect
same,inhibition at 10 µM,"22RV1 cells [1]; Homo sapiens, 22Rv1, 10 μM, 28 nM androstenedione, 24 h, read-out: Inhibition of testosterone levels",50.8%
same,inhibition at 10 µM,NCI-H460 cells,39.6%
same,inhibition at 10 µM,22RV1 cells [2],44.9%
same,inhibition at 10 µM,LAPC4 AKR1C3 cells [3]; 1 nM androstenedione,90.8%
same,inhibition at 10 µM,LAPC4 AKR1C3 cells [3]; 10 nM androstenedione,57.4%
same,Effect on androstenedione-stimulated cell proliferation,22RV1 cells [4],no effect
same,Reduction in androstenedione-stimulated cell proliferation,"LAPC4 AKR1C3 cells [5]; 10 μM, 1 nM androstenedione, non-significant",45.9%
same,inhibition at 10 µM,"LAPC4 AKR1C3 cells [5]; Homo sapiens, LAPC4, 120 h, 0.1 nM androstenedione, read-out: Inhibition of androstenedione-stimulated cell proliferation",101%
same,Effect on androstenedione-stimulated cell proliferation,LAPC4 wild-type cells,no effect
same,Reduction of unstimulated cell proliferation,MCF7 cells; 10 μM,7.3%
same,inhibition at 10 µM,"MCF7 cells; Homo sapiens, MCF7, 120 h, 10 nM estrone, read-out: Inhibition of estrone-stimulated cell proliferation",14.9%
same,Effect on estrone-stimulated cell proliferation,T47D AKR1C3 cells,not significantly inhibited
same,Effect on estrone-stimulated cell proliferation,T47D cells,not significantly inhibited
